# Laboratory results taken from patent publication US11471442B2, “Administration of gut-selective JAK3 inhibitor” (THERAVANCE BIOPHARMA R&D IP, LLC, priority 2020, dated 2022).
# What was measured:
# [1] = Phase 1 single ascending dose (SAD, Part A) safety and tolerability in healthy subjects; format: in vivo, human; details: for Most frequent TEAEs: Apthous ulcer / Most frequent TEAEs: Back pain / Most frequent TEAEs: Diarrhea / Most frequent TEAEs: Headache / Most frequent TEAEs: Pain in extremity / Subjects with TEAEs: Any TEAE / Subjects with TEAEs: Moderate or severe TEAE / Subjects with TEAEs: Seriou TEAE / Subjects with TEAEs: TEAE leading to discontinuation / Total number of TEAEs: SAD, n = 6
# Excerpt: (§1) This clinical study was the first in human study of a compound of formula (I). The purpose of this study was to assess the safety, tolerability and pharmacokinetics (PK) of the compound of formula (I) through single ascending dose administration (Part A) and multiple dose administrations (Part B) in healthy subjects.
# (§2) The number and severity of treatment emergent adverse events (TEAE5) following single (Part A) or multiple (Parts B) oral doses of the compound of formula (I) and matching placebo, and changes in safety laboratory assessments, vital signs, and ECGs.
# 32 healthy, adult male and female subjects were enrolled in Part A. Four cohorts (A1 to A4) of 8 healthy subjects (6 active and 2 placebo) were evaluated.
# In each cohort, healthy subjects meeting eligibility criteria were sequentially randomized in a 3:1 ratio to receive either the compound of formula (I) or matching placebo. Study drug was administered orally as a single dose on the morning of Day 1 following an overnight fast of at least 9.5 hours. Subjects were dosed in an upright (i.e., seated or standing) position and remained upright for 5 minutes following dosing prior to performing study procedures which require a posture change. Subjects were to remain fasted, except water, until after the 4-hour post-dose assessments were completed and the 4-hour post dose PK sample was collected. PK sampling for the compound of formula (I) in plasma and urine were taken Day 1 pre-dose and for 72 hours post-dose.
# (§3) Safety was determined by evaluating physical examinations, vital signs, safety 12-lead electrocardiograms (ECGs) monitoring, clinical laboratory tests, and adverse events (AEs). For procedures scheduled to be performed at common times, collection of PK samples was collected as close as possible to the designated time. The cardiodynamic recordings via ECG extractions from the Holter monitor were conducted as close as possible prior to the corresponding PK sampling. Vital signs, followed by safety ECGs, were be taken before the PK sampling (or before the cardiodynamic sampling if scheduled at the same time), unless PK samples were late as a result in which case vital signs were taken following the PK sampling.
# (§4) Safety analyses were performed using the Safety analysis set. Safety variables include vital signs, adverse events, clinical laboratory results (hematology, chemistry, coagulation, and urinalysis), and ECG parameters, such as Friderica's corrected QT interval (QTcF), PR interval, QT interval, QRS interval, and heart rate, from standard safety digital ECGs. Vital signs were summarized in terms of observed values and changes from baseline.
# [2] = Phase 1 multiple ascending dose (MAD, Part B) safety and tolerability in healthy subjects; format: in vivo, human; details: for Most frequent TEAEs: Acne / Most frequent TEAEs: Dizziness / Most frequent TEAEs: Headache / Most frequent TEAEs: Pain in extremity / Subjects with TEAEs: Any TEAE / Subjects with TEAEs: Moderate or severe TEAE / Subjects with TEAEs: Serious TEAE / Subjects with TEAEs: TEAE leading to discontinuation / Total number of TEAEs: MAD, n = 6
# Excerpt: as §1, §2
# 24 healthy, adult male and female subjects were enrolled in Part B. […] cohorts (B1 to B3) of 8 healthy subjects (6 active and 2 placebo) were evaluated.
# In each cohort, healthy subjects meeting eligibility criteria were sequentially randomized in a 3:1 ratio to receive either the compound of formula (I) or placebo BID, each morning and evening (approximately 12 hours following the morning dose) for 10 consecutive days of dosing, except for Day 10 where subjects were only received a morning dose. Subjects were dosed in an upright (i.e., seated or standing) position and remained upright for 5 minutes after dosing before a posture change for other study procedures, if applicable. Subjects fasted overnight for at least 9.5 hours prior to morning dose on Day 1 and Day 10. Subjects continued the fast for at least 4 hours post morning dose on these days. For all other morning doses and for all evening doses (i.e., Day 1 evening and Days 2 to 9), subjects were required to fast for at least 2 hours prior and for at least 2 hours following the dose.
# as §3, §4
# [3] = tested on: oxazolone-induced colitis model in mice; experiment: Oxazolone-induced colitis model in mice; format: in vivo
# Excerpt: Oxazolone-induced colitis is an experimental model that has a histological resemblance to human ulcerative colitis.
# [4] = tested on: NK cells; experiment: NK cell counts (immunophenotyping) in MAD cohorts; format: in vivo, human; details: day 1 to day 10, MAD
# Experimental: Immunophenotyping was conducted on NK Cells in part B only.
structure (smiles),measurement,setting,value
CN(C)C/C=C/C(=O)N1CC(COc2cc(-c3ccc(O)cc3)cc3[nH]ncc23)C1 [compound of formula (I)],serious AEs,[1]; SAD cohorts,No serious AEs
same,severity of reported treatment-emergent AEs,[1]; SAD cohorts,mild
same,"AEs considered related to study drug (diarrhea, abdominal discomfort, and vomiting)","[1]; SAD cohorts, 2000 mg",Three
same,"changes from predose baseline in laboratory assessments (lipid, coagulation, hematology), vital signs or ECGs","[1]; SAD cohorts, any time point postdose",No clinically significant changes
same,Most frequent TEAEs: Apthous ulcer,[1]; single oral dose 100 mg,1 (17)
same,Most frequent TEAEs: Back pain,[1]; single oral dose 100 mg,1 (17)
same,Most frequent TEAEs: Diarrhea,[1]; single oral dose 100 mg,0
same,Most frequent TEAEs: Headache,[1]; single oral dose 100 mg,1 (17)
same,Most frequent TEAEs: Pain in extremity,[1]; single oral dose 100 mg,3 (50)
same,Subjects with TEAEs: Any TEAE,[1]; single oral dose 100 mg,4 (67)
same,Subjects with TEAEs: Moderate or severe TEAE,[1]; single oral dose 100 mg,0
same,Subjects with TEAEs: Seriou TEAE,[1]; single oral dose 100 mg,0
same,Subjects with TEAEs: TEAE leading to discontinuation,[1]; single oral dose 100 mg,0
same,Total number of TEAEs,[1]; single oral dose 100 mg,8
same,Most frequent TEAEs: Apthous ulcer,[1]; single oral dose 300 mg,0
same,Most frequent TEAEs: Back pain,[1]; single oral dose 300 mg,0
same,Most frequent TEAEs: Diarrhea,[1]; single oral dose 300 mg,0
same,Most frequent TEAEs: Headache,[1]; single oral dose 300 mg,0
same,Most frequent TEAEs: Pain in extremity,[1]; single oral dose 300 mg,1 (17)
same,Subjects with TEAEs: Any TEAE,[1]; single oral dose 300 mg,2 (33)
same,Subjects with TEAEs: Moderate or severe TEAE,[1]; single oral dose 300 mg,0
same,Subjects with TEAEs: Seriou TEAE,[1]; single oral dose 300 mg,0
same,Subjects with TEAEs: TEAE leading to discontinuation,[1]; single oral dose 300 mg,0
same,Total number of TEAEs,[1]; single oral dose 300 mg,2
same,Most frequent TEAEs: Apthous ulcer,[1]; single oral dose 1000 mg,0
same,Most frequent TEAEs: Back pain,[1]; single oral dose 1000 mg,1 (17)
same,Most frequent TEAEs: Diarrhea,[1]; single oral dose 1000 mg,1 (17)
same,Most frequent TEAEs: Headache,[1]; single oral dose 1000 mg,0
same,Most frequent TEAEs: Pain in extremity,[1]; single oral dose 1000 mg,0
same,Subjects with TEAEs: Any TEAE,[1]; single oral dose 1000 mg,2 (33)
same,Subjects with TEAEs: Moderate or severe TEAE,[1]; single oral dose 1000 mg,0
same,Subjects with TEAEs: Seriou TEAE,[1]; single oral dose 1000 mg,0
same,Subjects with TEAEs: TEAE leading to discontinuation,[1]; single oral dose 1000 mg,0
same,Total number of TEAEs,[1]; single oral dose 1000 mg,6
same,Most frequent TEAEs: Apthous ulcer,[1]; single oral dose 2000 mg,1 (17)
same,Most frequent TEAEs: Back pain,[1]; single oral dose 2000 mg,0
same,Most frequent TEAEs: Diarrhea,[1]; single oral dose 2000 mg,1 (17)
same,Most frequent TEAEs: Headache,[1]; single oral dose 2000 mg,1 (17)
same,Most frequent TEAEs: Pain in extremity,[1]; single oral dose 2000 mg,0
same,Subjects with TEAEs: Any TEAE,[1]; single oral dose 2000 mg,3 (50)
same,Subjects with TEAEs: Moderate or severe TEAE,[1]; single oral dose 2000 mg,0
same,Subjects with TEAEs: Seriou TEAE,[1]; single oral dose 2000 mg,0
same,Subjects with TEAEs: TEAE leading to discontinuation,[1]; single oral dose 2000 mg,0
same,Total number of TEAEs,[1]; single oral dose 2000 mg,6
same,tolerability,[1]; single dose up to 2000 mg,generally well-tolerated
same,serious AEs,[2]; MAD cohorts,No serious AEs
same,severity of reported treatment-emergent AEs,[2]; MAD cohorts,mild
same,"changes from predose baseline in laboratory assessments (lipid, coagulation, hematology), vital signs or ECGs","[2]; MAD cohorts, any time point postdose",No clinically significant changes
same,Most frequent TEAEs: Acne,[2]; 100 mg BID oral for 10 days,1 (17)
same,Most frequent TEAEs: Dizziness,[2]; 100 mg BID oral for 10 days,2 (33)
same,Most frequent TEAEs: Headache,[2]; 100 mg BID oral for 10 days,2 (33)
same,Most frequent TEAEs: Pain in extremity,[2]; 100 mg BID oral for 10 days,1 (17)
same,Subjects with TEAEs: Any TEAE,[2]; 100 mg BID oral for 10 days,5 (83)
same,Subjects with TEAEs: Moderate or severe TEAE,[2]; 100 mg BID oral for 10 days,0
same,Subjects with TEAEs: Serious TEAE,[2]; 100 mg BID oral for 10 days,0
same,Subjects with TEAEs: TEAE leading to discontinuation,[2]; 100 mg BID oral for 10 days,0
same,Total number of TEAEs,[2]; 100 mg BID oral for 10 days,11
same,Most frequent TEAEs: Acne,[2]; 300 mg BID oral for 10 days,0
same,Most frequent TEAEs: Dizziness,[2]; 300 mg BID oral for 10 days,0
same,Most frequent TEAEs: Headache,[2]; 300 mg BID oral for 10 days,0
same,Most frequent TEAEs: Pain in extremity,[2]; 300 mg BID oral for 10 days,0
same,Subjects with TEAEs: Any TEAE,[2]; 300 mg BID oral for 10 days,1 (17)
same,Subjects with TEAEs: Moderate or severe TEAE,[2]; 300 mg BID oral for 10 days,0
same,Subjects with TEAEs: Serious TEAE,[2]; 300 mg BID oral for 10 days,0
same,Subjects with TEAEs: TEAE leading to discontinuation,[2]; 300 mg BID oral for 10 days,0
same,Total number of TEAEs,[2]; 300 mg BID oral for 10 days,9
same,Most frequent TEAEs: Acne,[2]; 1000 mg BID oral for 10 days,0
same,Most frequent TEAEs: Dizziness,[2]; 1000 mg BID oral for 10 days,0
same,Most frequent TEAEs: Headache,[2]; 1000 mg BID oral for 10 days,0
same,Most frequent TEAEs: Pain in extremity,[2]; 1000 mg BID oral for 10 days,0
same,Subjects with TEAEs: Any TEAE,[2]; 1000 mg BID oral for 10 days,0
same,Subjects with TEAEs: Moderate or severe TEAE,[2]; 1000 mg BID oral for 10 days,0
same,Subjects with TEAEs: Serious TEAE,[2]; 1000 mg BID oral for 10 days,0
same,Subjects with TEAEs: TEAE leading to discontinuation,[2]; 1000 mg BID oral for 10 days,0
same,Total number of TEAEs,[2]; 1000 mg BID oral for 10 days,0
same,tolerability,[2]; multiple doses up to 1000 mg BID for 10 days,generally well-tolerated
same,activity in the oxazolone-induced colitis model,[3],demonstrated activity
same,changes in absolute or relative NK cell counts,[4],no apparent changes
